# Reference: ChEMBL document CHEMBL1201862, “PubChem BioAssay data set” (2004)
# Calls of active or inactive are those of the source.
# Assays:
# [1] = biological target: T1, Kappa-type opioid receptor (Homo sapiens, UniProt P41145); assay type: functional
# [2] = biological target: T2, Delta-type opioid receptor (Homo sapiens, UniProt P41143); test: HTS Image-Based Screen for Agonists of the DOR Receptor. [Related pubchem assays (depositor defined):AID1777, AID1786, AID2133]; assay type: functional
# [3] = biological target: Mu-type opioid receptor (Homo sapiens, UniProt P35372); test: HTS Image-Based Screen for Agonists of the MOR Receptor. [Related pubchem assays (depositor defined):AID1777, AID1785, AID1786, AID2133]; assay type: functional;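 further: imaging of beta-arrestin GFP recruitment into spots after receptor activation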
# [4] = biological target: Beta-galactosidase (Escherichia coli, UniProt Q8VNN2); assay type: functional
# [5] = biological target: T1, Kappa-type opioid receptor; assay type: functional; remark: listed apart in the source
# [6] = biological target: T2, Delta-type opioid receptor; test: HTS Image-Based Screen for Antagonists of the DOR Receptor. [Related pubchem assays (depositor defined):AID1777, AID1785, AID1786, AID2133]; assay type: functional
# [7] = biological target: Cytochrome P450 3A4 (Homo sapiens, UniProt P08684);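 further: CYP3A4 tested as one member of a cytochrome P450 panel screen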
# [8] = biological target: Large T antigen (Simian virus 40, UniProt P03070); assay type: functional, Betapolyomavirus macacae;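 further: Confirmatory-stage PubChem screen for compounds that inhibit SV40 T antigen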
# [9] = biological target: T3, Histone-lysine N-methyltransferase NSD2 (Homo sapiens, UniProt O96028); assay type: biochemical
# T3 sequence (O96028 whole entry): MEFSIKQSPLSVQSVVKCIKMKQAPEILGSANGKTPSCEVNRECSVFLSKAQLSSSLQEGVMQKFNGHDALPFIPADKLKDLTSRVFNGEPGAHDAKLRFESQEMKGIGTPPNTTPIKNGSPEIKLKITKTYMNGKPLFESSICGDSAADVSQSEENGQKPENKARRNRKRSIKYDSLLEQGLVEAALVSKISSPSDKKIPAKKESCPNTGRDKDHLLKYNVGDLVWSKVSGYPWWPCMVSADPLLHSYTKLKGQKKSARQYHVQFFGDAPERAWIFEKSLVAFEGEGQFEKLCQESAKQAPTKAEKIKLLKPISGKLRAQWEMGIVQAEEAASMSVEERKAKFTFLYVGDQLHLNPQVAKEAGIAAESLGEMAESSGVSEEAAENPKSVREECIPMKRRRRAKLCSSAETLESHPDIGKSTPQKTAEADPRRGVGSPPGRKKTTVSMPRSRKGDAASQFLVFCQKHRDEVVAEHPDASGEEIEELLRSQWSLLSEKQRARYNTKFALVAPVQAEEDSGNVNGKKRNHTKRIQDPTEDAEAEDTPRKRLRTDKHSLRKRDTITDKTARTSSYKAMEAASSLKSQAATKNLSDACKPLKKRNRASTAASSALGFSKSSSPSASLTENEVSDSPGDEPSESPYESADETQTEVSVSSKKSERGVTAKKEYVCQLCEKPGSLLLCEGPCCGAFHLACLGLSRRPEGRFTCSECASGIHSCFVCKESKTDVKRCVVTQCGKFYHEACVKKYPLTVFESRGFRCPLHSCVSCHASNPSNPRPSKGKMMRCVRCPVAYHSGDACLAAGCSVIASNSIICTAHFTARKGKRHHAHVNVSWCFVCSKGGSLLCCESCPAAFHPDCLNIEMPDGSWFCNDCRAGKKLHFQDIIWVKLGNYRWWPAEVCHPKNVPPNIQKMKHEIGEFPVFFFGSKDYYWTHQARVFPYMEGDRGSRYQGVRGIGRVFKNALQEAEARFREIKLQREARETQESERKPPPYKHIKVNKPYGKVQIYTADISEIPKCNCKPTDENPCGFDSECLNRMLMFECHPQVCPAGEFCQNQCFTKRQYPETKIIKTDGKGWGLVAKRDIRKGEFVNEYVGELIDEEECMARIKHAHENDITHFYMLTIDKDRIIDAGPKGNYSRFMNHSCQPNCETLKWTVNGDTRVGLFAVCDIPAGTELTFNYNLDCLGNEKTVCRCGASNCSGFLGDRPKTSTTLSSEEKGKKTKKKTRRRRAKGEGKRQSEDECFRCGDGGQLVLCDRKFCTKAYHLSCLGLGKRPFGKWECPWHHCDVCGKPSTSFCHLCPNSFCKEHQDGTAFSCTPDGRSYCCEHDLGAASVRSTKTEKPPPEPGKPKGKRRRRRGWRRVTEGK
# [10] = biological target: Albumin (Bos taurus, UniProt P02769); test: Counterscreen for inhibitors of T-cell receptor (TCR)-CD3 interaction: Fluorescence-based biochemical high throughput dose response assay to identify inhibitors of T-cell receptor (TCR)-CD3 interaction using a TAMRA-labeled BSA probe.; assay type: functional
# [11] = biological target: Intestinal-type alkaline phosphatase (Homo sapiens, UniProt P09923); test: inhibition of human intestinal alkaline phosphatase – biochemical, dose response (AID 488876); assay type: functional
# [12] = biological target: Intestinal-type alkaline phosphatase (Mus musculus, UniProt P24822); test: PubChem AID 488785; assay type: functional
# [13] = biological target: T4, Alkaline phosphatase, tissue-nonspecific isozyme (Homo sapiens, UniProt P05186); test: TNAP enzyme inhibition by screening hits, dose response, selectivity assay for mouse IAP inhibitor project, biochemical, human TNAP, uHTS hits (AID 488906); assay type: functional
# T4 sequence (P05186 whole entry): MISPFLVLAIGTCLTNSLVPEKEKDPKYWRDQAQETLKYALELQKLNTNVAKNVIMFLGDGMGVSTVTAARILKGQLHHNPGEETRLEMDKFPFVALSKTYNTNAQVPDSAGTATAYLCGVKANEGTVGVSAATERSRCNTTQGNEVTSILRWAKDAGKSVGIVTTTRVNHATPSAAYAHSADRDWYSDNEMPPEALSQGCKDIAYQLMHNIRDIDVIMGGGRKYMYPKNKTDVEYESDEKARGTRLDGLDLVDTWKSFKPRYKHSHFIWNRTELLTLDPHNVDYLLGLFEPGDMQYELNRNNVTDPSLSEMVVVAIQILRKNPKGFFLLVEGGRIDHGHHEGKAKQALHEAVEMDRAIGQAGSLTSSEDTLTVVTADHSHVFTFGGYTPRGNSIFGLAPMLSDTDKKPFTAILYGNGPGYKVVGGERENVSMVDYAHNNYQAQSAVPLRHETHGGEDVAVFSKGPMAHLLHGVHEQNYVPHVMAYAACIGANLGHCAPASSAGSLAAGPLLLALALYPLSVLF
# [14] = system: HEK293; test: cells; assay type: functional, cell-based; details: Homo sapiens
# [15] = system: HEK293; test: cells; assay type: functional, cell-based; details: Homo sapiens; remark: listed apart in the source
# [16] = inhibitors of SNCA 5'UTR-driven reporter translation, confirmation, H4 neuroglioma cells, luminescence (AID 1988); assay type: functional, cell-based
# [17] = Luminescence Cell-Based Dose Response HTS to Identify Inhibitors of 5'UTR Stem-Loop Driven Prion Protein mRNA Translation in H4 Neuroglioblastoma Cells. [Related pubchem assays: 1827 (Project Summary), 1813 (Primary HTS)]; assay type: functional
# [18] = system: HEK293; test: NOD2 signaling inhibitors in MDP-stimulated cells, cell-based, uHTS, luminescence (AID 2001); assay type: functional; details: Homo sapiens
# [19] = Luminescence Cell-Based Dose Confirmation HTS to Identify Inhibitors of Platelet Dense Granule Release. [Related pubchem assays: 1663 (Primary HTS), 1678 (Summary of Project)]; assay type: functional
# [20] = biological target: Nucleotide-binding oligomerization domain-containing protein 2 (Homo sapiens, UniProt Q9HC29); test: NOD2 signaling inhibitors, cell-based, luminescence, uHTS, HEK293 (AID 1566); assay type: functional
# [21] = inhibitors of firefly luciferase expression or activity, dose response, H4 neuroglioma cells, luminescence (AID 1990); assay type: functional, cell-based
# [22] = biological target: Luciferin 4-monooxygenase (Photinus pyralis, UniProt P08659); test: firefly luciferase enzyme inhibitors, dose response, biochemical, luminescence (AID 1891)
# [23] = system: HEK293; test: cells; assay type: functional, cell-based; details: Homo sapiens; remark: listed apart in the source
# [24] = system: HEK293; test: NOD1 signaling inhibitors, primary screen, cell-based, luminescence, uHTS (AID 1578); assay type: functional; details: Homo sapiens
# [25] = biological target: T4, Alkaline phosphatase, tissue-nonspecific isozyme; test: human TNAP enzyme inhibitors, SAR follow-up, biochemical, luminescent, dose response (AID 1056)
# [26] = biological target: Alkaline phosphatase, placental type (Homo sapiens, UniProt P05187); test: PLAP enzyme inhibitors, confirmation, biochemical, luminescence (AID 1512); assay type: functional
# Alkaline phosphatase, placental type, sequence (P05187 whole entry): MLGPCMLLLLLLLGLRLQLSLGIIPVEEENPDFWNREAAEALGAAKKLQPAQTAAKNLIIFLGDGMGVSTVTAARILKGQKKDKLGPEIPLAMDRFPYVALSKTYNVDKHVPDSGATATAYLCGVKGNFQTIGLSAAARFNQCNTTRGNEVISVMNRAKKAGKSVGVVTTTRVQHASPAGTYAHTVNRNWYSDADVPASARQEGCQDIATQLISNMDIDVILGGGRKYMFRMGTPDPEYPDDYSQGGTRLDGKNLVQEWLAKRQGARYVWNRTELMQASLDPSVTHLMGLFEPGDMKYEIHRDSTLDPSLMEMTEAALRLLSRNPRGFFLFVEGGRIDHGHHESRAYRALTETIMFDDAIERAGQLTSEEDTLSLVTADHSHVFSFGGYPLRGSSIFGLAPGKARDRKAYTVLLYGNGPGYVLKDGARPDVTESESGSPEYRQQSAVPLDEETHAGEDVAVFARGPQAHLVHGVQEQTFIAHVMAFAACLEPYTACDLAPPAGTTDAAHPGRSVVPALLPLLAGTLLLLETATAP
# T2 sequence (P41143 whole entry): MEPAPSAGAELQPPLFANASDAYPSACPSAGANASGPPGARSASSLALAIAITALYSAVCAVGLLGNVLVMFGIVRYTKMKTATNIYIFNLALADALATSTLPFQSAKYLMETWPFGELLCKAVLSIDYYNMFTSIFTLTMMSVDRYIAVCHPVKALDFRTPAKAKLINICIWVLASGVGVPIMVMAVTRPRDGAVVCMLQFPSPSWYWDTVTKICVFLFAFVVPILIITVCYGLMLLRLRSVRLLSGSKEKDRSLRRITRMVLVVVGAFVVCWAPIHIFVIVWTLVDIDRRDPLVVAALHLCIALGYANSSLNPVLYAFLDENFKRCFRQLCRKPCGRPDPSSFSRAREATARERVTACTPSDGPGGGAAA
# T1 sequence (P41145 whole entry): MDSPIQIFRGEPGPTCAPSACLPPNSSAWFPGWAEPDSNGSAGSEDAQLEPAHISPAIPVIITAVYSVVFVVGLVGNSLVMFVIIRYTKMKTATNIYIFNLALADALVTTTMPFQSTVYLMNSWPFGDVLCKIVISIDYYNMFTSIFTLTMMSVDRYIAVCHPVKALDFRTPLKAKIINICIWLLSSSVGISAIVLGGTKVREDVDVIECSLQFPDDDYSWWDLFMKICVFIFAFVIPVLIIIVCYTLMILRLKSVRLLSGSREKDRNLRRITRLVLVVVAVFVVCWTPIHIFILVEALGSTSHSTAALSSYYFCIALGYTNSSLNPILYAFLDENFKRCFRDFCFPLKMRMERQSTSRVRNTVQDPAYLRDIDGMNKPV
# Beta-galactosidase, sequence (Q8VNN2 whole entry): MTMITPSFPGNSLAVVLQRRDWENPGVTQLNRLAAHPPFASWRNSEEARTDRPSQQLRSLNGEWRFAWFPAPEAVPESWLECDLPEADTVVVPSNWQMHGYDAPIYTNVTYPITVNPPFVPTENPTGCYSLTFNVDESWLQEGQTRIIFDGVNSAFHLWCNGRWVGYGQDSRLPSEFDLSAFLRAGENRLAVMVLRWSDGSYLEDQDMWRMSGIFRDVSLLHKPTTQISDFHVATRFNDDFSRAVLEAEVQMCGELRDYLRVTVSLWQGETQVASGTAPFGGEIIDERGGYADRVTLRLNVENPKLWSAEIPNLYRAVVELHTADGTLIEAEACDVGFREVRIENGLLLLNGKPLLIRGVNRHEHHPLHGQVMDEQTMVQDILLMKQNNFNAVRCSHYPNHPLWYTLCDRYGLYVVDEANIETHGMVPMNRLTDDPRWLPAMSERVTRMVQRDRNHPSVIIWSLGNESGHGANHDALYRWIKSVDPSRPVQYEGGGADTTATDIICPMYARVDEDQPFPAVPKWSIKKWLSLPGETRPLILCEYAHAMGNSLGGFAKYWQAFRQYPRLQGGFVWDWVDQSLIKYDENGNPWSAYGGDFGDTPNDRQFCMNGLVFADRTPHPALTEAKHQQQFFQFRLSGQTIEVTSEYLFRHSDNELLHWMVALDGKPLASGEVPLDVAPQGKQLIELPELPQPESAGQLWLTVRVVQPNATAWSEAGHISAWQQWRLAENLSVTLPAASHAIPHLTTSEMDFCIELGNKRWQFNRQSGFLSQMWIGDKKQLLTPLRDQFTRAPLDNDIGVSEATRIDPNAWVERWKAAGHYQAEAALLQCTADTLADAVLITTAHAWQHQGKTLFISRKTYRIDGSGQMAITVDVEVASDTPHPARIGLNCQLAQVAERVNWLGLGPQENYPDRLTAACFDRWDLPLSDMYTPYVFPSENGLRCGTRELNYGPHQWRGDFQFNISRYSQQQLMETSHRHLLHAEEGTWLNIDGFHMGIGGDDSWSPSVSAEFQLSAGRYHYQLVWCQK
# Mu-type opioid receptor, sequence (P35372 whole entry): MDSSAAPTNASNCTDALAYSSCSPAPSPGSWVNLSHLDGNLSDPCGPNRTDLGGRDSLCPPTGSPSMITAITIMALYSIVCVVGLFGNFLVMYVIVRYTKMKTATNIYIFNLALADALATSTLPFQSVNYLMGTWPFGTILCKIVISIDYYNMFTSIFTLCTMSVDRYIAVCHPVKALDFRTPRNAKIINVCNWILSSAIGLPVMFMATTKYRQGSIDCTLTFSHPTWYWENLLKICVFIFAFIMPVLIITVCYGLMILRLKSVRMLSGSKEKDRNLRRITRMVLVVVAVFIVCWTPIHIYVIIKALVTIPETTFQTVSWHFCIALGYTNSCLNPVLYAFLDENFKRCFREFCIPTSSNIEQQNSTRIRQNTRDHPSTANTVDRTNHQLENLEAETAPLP
# Intestinal-type alkaline phosphatase (Mus musculus, UniProt P24822), sequence (P24822 whole entry): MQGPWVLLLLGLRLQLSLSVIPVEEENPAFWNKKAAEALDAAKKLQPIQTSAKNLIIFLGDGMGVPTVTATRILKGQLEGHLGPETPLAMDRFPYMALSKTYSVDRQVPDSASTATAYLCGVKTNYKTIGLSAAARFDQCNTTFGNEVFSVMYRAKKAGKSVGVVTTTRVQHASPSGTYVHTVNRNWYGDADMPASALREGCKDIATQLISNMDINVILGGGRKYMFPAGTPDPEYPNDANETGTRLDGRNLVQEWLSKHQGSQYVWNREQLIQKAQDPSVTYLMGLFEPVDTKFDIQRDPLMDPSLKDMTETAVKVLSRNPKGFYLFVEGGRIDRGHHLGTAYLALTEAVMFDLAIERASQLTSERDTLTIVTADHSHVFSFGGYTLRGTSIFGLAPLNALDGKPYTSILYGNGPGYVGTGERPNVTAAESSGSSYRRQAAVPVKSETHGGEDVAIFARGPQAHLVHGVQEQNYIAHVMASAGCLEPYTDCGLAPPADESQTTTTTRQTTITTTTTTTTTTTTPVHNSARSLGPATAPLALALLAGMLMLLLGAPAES
# Albumin, sequence (P02769 whole entry): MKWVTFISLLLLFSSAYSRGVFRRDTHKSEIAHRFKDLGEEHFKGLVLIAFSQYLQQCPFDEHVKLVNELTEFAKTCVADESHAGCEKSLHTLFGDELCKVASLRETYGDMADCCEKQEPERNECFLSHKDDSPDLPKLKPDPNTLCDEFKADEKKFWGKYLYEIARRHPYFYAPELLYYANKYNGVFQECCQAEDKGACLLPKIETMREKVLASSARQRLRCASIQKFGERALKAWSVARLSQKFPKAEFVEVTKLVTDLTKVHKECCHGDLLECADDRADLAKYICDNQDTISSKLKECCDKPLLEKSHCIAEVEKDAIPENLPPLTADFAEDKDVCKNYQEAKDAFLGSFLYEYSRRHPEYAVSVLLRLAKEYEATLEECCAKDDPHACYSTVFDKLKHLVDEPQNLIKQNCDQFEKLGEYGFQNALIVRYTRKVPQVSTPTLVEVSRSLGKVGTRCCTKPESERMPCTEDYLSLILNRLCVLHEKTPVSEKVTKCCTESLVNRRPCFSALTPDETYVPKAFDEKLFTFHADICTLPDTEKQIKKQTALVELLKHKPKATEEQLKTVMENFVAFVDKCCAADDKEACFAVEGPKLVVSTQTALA
# Cytochrome P450 3A4, sequence (P08684 whole entry): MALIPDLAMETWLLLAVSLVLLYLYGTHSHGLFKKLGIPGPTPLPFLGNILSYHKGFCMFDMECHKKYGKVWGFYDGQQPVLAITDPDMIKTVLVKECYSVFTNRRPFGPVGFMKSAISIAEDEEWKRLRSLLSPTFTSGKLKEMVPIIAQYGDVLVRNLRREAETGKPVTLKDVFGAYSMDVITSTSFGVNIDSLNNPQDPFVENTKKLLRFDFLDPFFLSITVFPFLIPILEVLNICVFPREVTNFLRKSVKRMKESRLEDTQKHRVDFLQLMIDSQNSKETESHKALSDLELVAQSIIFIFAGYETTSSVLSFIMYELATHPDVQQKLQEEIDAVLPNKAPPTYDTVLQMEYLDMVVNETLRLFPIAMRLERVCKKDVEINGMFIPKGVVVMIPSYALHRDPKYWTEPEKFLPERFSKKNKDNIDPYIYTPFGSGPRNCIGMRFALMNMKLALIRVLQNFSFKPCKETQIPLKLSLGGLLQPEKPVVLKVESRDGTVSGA
# Intestinal-type alkaline phosphatase (Homo sapiens, UniProt P09923), sequence (P09923 whole entry): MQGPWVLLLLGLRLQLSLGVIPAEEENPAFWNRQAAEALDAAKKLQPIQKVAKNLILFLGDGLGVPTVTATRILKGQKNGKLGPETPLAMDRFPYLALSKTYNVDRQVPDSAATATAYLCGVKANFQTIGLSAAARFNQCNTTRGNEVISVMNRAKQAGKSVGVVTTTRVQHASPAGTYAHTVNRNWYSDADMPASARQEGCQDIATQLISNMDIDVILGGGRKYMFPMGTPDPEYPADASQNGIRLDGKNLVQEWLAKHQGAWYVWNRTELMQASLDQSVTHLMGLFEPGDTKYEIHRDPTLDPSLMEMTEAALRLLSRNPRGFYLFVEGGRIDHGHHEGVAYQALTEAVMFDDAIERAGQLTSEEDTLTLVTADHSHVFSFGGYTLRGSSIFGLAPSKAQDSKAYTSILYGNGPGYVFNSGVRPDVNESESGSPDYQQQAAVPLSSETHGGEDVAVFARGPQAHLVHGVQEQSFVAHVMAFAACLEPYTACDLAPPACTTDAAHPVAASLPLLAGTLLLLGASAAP
smiles,measurement,setting,value
CC(=O)N1N=C(c2cccs2)CC1c1cccc([N+](=O)[O-])c1 (stereo unspecified),IC50,[1],14.4 µM (active)
same,EC50,[2],> 32 µM (inactive)
same,EC50,[3],> 32 µM (inactive)
same,EC50,[4],20.4 µM (active)
same,IC50,[5],> 32 µM
same,IC50,[6],> 32 µM (inactive)
CN(C)c1ccnc(-c2ccccc2C(F)(F)F)n1,AC50,[7],inconclusive
O=C(Cc1nnc(NC(=O)c2ccccc2)s1)N/N=C\c1ccc(O)c(O)c1,IC50,[8],20.8 µM (active)
same,AC50,[9],5.23 µM (active)
same,IC50,[10],> 94.1 µM (inactive)
same,IC50,[11],> 100 µM (inactive)
same,IC50,[12],24.6 µM (active)
same,IC50,[13],> 100 µM (inactive)
Cc1cc(/C=N/Nc2ncnc(N)c2[N+](=O)[O-])c(C)n1-c1ccccc1,IC50,[14],> 20 µM (inactive)
same,IC50,[15],1.4 µM (active)
same,EC50,[16],192 nM (active)
same,EC50,[17],< 100 nM (active)
same,IC50,[18],6.1 µM (active)
same,EC50,[19],3.67 µM (active)
same,EC50,[20],< 310 nM (inactive)
same,EC50,[21],171 nM (active)
same,EC50,[22],1.1 µM (active)
same,IC50,[23],> 20 µM (inactive)
same,EC50,[24],4.14 µM (active)
COc1ccc(C(=O)CSc2nc(C)cc(C)n2)cc1,IC50,[25],> 100 µM (inactive)
same,IC50,[26],> 100 µM (inactive)
